According to US20200352878A1, “USE OF CANNABINOIDS IN THE TREATMENT OF EPILEPSY” (priority 2018, published 2020):

What was measured:
[1] = Open-label, fixed sequence healthy volunteer drug-drug interaction trial of CBD and stiripentol (steady-state pharmacokinetics, safety); assay type: in vivo, human; conditions: healthy volunteers
Method: As part of an open-label, fixed sequence, healthy volunteer trial the primary objective was to investigate the impact of CBD (750 mg twice daily) on the steady-state pharmacokinetics of stiripentol (STP) (750 mg) and the reciprocal effect on CBD, 7-hydroxy-cannabidiol (7-OH-CBD) and 7-carboxy-cannabidiol (7-COOH-CBD).
Analyte plasma concentrations were determined using validated bioanalytical methods. A secondary objective was to evaluate the safety and tolerability of CBD when co-administered with STP.

[2] = test system: convulsive seizures in patients with treatment-resistant Dravet syndrome; assay: Clinical trial of adjunctive CBD in treatment-resistant Dravet syndrome; analysis of the interaction with concomitant AEDs; assay type: in vivo, human; conditions: for Percentage of patients with greater than 50% reduction in seizures: Dravet syndrome patients aged 2-18 years, convulsive seizures over treatment period vs 4-week baseline, CBD 20 mg/kg/day or placebo added to current AEDs
Method: Following completion of a 4-week baseline period, patients were randomized to receive either 20 mg/kg/day CBD (n=61) or placebo (n=59). CBD or placebo were added to their current anti-epileptic treatment which remained stable over the treatment period of the study.
Seizure counts were reported daily via an Interactive Voice Response System. Convulsive seizures were defined as all countable atonic, tonic, clonic, and tonic-clonic seizures. The primary efficacy end point was percent change from baseline in convulsive seizures.
During a 4-week baseline period, patients were required to have at least 4 convulsive seizures (tonic-clonic, clonic, tonic or atonic) while on stable AED therapy. Patients had previously failed a median of 4 prior AEDs and 93% were taking 2 or more concomitant AEDs during the trial. The most commonly used concomitant AEDs (>25% of patients) were clobazam, valproate, stiripentol, levetiracetam, and topiramate.
Following the trial statistical analysis was performed on the various patient groups to determine whether there was an interaction between any of the concomitant AEDs that the patients were taking.
Table 6 below describes the percentage of patients that recorded a 50% reduction in convulsive seizures over the treatment period.

[3] = CBD 750 mg twice daily, STP 750 mg, plasma

## C=C(C)[C@@H]1CCC(C(=O)O)=C[C@H]1c1c(O)cc(CCCCC)cc1O [7-COOH-CBD, 7-carboxy-cannabidiol]
[1]; [3]
  reduction of exposure by co-administered STP: 13%

## C=C(C)[C@@H]1CCC(CO)=C[C@H]1c1c(O)cc(CCCCC)cc1O [7-OH-CBD, 7-hydroxy-cannabidiol]
[1]; [3]
  reduction of exposure by co-administered STP: 29%

## C=C(C)[C@@H]1CCC(C)=C[C@H]1c1c(O)cc(CCCCC)cc1O [CBD, cannabidiol]
[2]; CBD 20 mg/kg/day group (n=61) vs placebo (n=59), p=0.0123
  median percent change from baseline in reduction of convulsive seizures, compared with placebo: statistically superior to placebo
[1]; [3]
  effect of co-administration of STP on CBD exposure: no effect
[1]; CBD co-administered with STP
  most common adverse event (AE): diarrhoea

## CC(C)(C)C(O)/C=C/c1ccc2c(c1)OCO2 (stereo not shown) [Stiripentol, stiripentol]
[2]
  Percentage of patients with greater than 50% reduction in seizures: 14%
[2]; listed as stiripentol
  Percentage of patients with greater than 50% reduction in seizures: 14%
